Laboratory results from patent publication US8710233B2 (Gruenenthal GmbH, priority 2005, dated 2014).

Legend:
VR1/TRPV1 receptor = VR1/TRPV1 receptor (Homo sapiens, UniProt Q8NER1); assay: IC50 (human) after pH stimulus; type: cell-based; settings: for inhibition in percent, IC50 (human) after pH stimulus: @ 1 μM, ne = no effect; for IC50: table 4
vanilloid receptor (VR1) = biological target: T1, vanilloid receptor (VR1) (Homo sapiens, UniProt Q8NER1); assay: FLIPR Ca2+ influx assay on CHO K1 cells transfected with the VR1 gene (pharmacological method II); type: cell-based; settings: table 4; capsaicin; read-out: Ki (human) Cap.
T1 construct: expressed in transfected cells; host or cells: CHO K1 cells (ECACC), stably transfected
T1 sequence (Q8NER1 whole entry): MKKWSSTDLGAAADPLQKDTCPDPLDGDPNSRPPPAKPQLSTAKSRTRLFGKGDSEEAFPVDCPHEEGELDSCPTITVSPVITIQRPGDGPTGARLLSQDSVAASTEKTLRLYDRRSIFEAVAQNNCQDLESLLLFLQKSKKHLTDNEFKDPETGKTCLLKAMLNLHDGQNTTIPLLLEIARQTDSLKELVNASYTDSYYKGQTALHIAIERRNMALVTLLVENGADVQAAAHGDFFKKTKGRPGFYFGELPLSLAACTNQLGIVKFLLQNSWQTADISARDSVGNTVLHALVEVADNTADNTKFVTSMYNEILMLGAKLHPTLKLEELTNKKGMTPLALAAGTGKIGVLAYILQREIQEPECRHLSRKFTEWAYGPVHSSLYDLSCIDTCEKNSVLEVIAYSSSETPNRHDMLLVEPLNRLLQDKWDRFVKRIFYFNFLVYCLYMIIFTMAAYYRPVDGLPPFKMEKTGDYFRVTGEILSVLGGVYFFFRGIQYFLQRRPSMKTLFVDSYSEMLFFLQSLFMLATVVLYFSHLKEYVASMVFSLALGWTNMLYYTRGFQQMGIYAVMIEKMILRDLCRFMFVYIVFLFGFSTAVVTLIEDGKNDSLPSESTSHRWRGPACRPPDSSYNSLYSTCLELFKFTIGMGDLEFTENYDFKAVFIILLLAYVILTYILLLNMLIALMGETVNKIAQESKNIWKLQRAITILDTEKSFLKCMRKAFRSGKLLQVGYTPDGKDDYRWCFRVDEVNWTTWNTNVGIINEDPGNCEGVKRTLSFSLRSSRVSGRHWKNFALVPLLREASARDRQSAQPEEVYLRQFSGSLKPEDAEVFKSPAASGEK
Text: In this FLIPR assay, the influx of Ca^2+ is quantified with the assistance of a Ca^2+-sensitive dye (type Fluo-4, Molecular Probes Europe BV, Leiden, Netherlands) in a Fluorescent Imaging Plate Reader (FLIPR, Molecular Devices, Sunnyvale, USA) as described below.
II. Functional Investigations on the Vanilloid Receptor (VR1)
The agonistic or antagonistic action of the substances to be investigated on the vanilloid receptor (VR1) may also be determined with the following assay. According to this assay, the influx of Ca^2+ through the channel is quantified with the assistance of a Ca^2+-sensitive dye (type Fluo-4, Molecular Probes Europe BV, Leiden, Netherlands) in a Fluorescent Imaging Plate Reader (FLIPR, Molecular Devices, Sunnyvale, USA).
Chinese hamster ovary cells (CHO K1 cells, European Collection of Cell Cultures (ECACC), Great Britain) are stably transfected with the VR1 gene. For functional investigations, these cells are plated out onto poly-D-lysine-coated, black 96 well plates with a clear bottom (BD Biosciences, Heidelberg, Germany) at a density of 25,000 cells/well. The cells are incubated overnight at 37° C. and 5% CO2 in a culture medium (Ham's Nutrient Mixture F12, 10 vol. % FCS (foetal calf serum), 18 μg/mL L-proline). On the following day, the cells are incubated with Fluo-4 (Fluo-4 2 μM, Pluronic F127 0.01 vol. %, Molecular Probes in HBSS (Hank's buffered saline solution), Gibco Invitrogen GmbH, Karlsruhe, Germany) for 30 minutes at 37° C. The plates are then washed 3 times with HBSS buffer and, after a further 15 minutes' incubation at room temperature, used for […] measurement in the FLIPR. […] Quantification proceeds by measuring the highest fluorescence intensity (FC, fluorescence counts) over time.
The FLIPR protocol comprises 2 additions of substance. The substances to be tested (10 μM) are firstly pipetted onto the cells and Ca^2+ influx is compared with the control (capsaicin 10 μM) (% activation relative to the Ca^2+ signal after addition of 10 μM of capsaicin). After 5 minutes' incubation, 100 nM of capsaicin are added and the influx of Ca^2+ is again determined.
The percentage inhibition in comparison with the maximum achievable inhibition with 10 μM capsaicin is calculated.

[1] = read-out: inhibition in percent, IC50 (human) after pH stimulus

VR1/TRPV1 receptor, sequence (Q8NER1 whole entry): as above

Compound	inhibition in percent, IC50 (human) after pH stimulus (VR1/TRPV1 receptor)	Ki (vanilloid receptor (VR1)) [nM]	IC50 (VR1/TRPV1 receptor) [nM]	inhibition at 5 µM (VR1/TRPV1 receptor; @ 5 μM, read-out: inhibition in percent, IC50 (human) after pH stimulus) [%]	inhibition at 10 µM (VR1/TRPV1 receptor; [1]) [%]
Cc1cc(C(F)(F)F)nc(N2CCC(Cc3ccccc3)CC2)c1CNC(=O)C(C)c1ccc(NS(C)(=O)=O)c(F)c1 (centres unmarked) [Example 356, N-(4-benzyl-4′-methyl-6′-trifluoromethyl-3,4,5,6-tetrahydro-2H-[1,2′]bipyridinyl-3′-ylmethyl)-2-(3-fluoro-4-methylsulfonamido-phenyl)-propionamide]	ne @ 1 μM	9.2	–	–	–
C/C=C\COc1nc(C(F)(F)F)ccc1CNC(=O)C(C)c1ccc(NS(C)(=O)=O)c(F)c1 (centres unmarked) [Example 298, N-(2-but-2-enyloxy-6-trifluoromethyl-pyridin-3-ylmethyl)-2-(3-fluoro-4-methylsulfonamido-phenyl)-propionamide]	–	1.6	183	–	–
CCCCCCOc1nc(C(F)(F)F)ccc1CNC(=O)C(C)c1ccc(NS(C)(=O)=O)c(F)c1 (centres unmarked) [Example 376, 2-(3-fluoro-4-(methylsulfonamido)phenyl)-N-((2-(hexyloxy)-6-(trifluoromethyl)pyridin-3-yl)methyl)propanamide]	–	0.8	20	–	–
CC(C)COc1cc(C(F)(F)F)ccc1CNC(=O)C(C)c1ccc(NS(C)(=O)=O)c(F)c1 (centres unmarked) [Example 98, 2-(3-fluoro-4-methylsulfonamido-phenyl)-N-(2-isobutoxy-4-trifluoromethyl-benzyl)-propionamide]	–	1.5	41	–	–
CC(C)Oc1nc(C(C)(C)C)ccc1CNC(=O)C(C)c1ccc(NS(C)(=O)=O)c(F)c1 (centres unmarked) [Example 374, N-((6-tert-butyl-2-isopropoxypyridin-3-yl)methyl)-2-(3-fluoro-4-(methylsulfonamido)phenyl)propanamide]	–	2.3	314	–	–
COc1ccc(-c2nc(C(F)(F)F)ccc2CNC(=O)C(C)c2ccc(NS(C)(=O)=O)c(F)c2)cc1OC (centres unmarked) [Example 326, N-[2-(3,4-dimethoxy-phenyl)-6-trifluoromethyl-pyridin-3-ylmethyl]-2-(3-fluoro-4-methylsulfonamido-phenyl)-propionamide]	–	25.6	–	–	66
COc1ccc(-c2cc(C(F)(F)F)ccc2CNC(=O)C(C)c2ccc(NS(C)(=O)=O)c(F)c2)cc1OC (centres unmarked) [Example 325, N-(3′,4′-dimethoxy-5-trifluoromethyl-biphenyl-2-ylmethyl)-2-(3-fluoro-4-methylsulfonamido-phenyl)-propionamide]	–	8.6	716	–	–

The next lines start with the values.

inhibition in percent, IC50 (human) after pH stimulus (VR1/TRPV1 receptor)	Ki (vanilloid receptor (VR1)) [nM]	IC50 (VR1/TRPV1 receptor) [nM]	inhibition at 5 µM (VR1/TRPV1 receptor; @ 5 μM, read-out: inhibition in percent, IC50 (human) after pH stimulus) [%]	inhibition at 10 µM (VR1/TRPV1 receptor; [1]) [%]	Compound
–	0.5	–	34	61	CCCCC(CCCC)Oc1nc(C(F)(F)F)ccc1CNC(=O)C(C)c1ccc(NS(C)(=O)=O)c(F)c1 (centres unmarked) [Example 352, N-[2-(1-butyl-pentyloxy)-6-trifluoromethyl-pyridin-3-ylmethyl]-2-(3-fluoro-4-methylsulfonamido-phenyl)-propionamide]
–	1.3	293	–	–	CC(C(=O)NCc1ccc(C(F)(F)F)nc1OC1CCN(C(=O)OC(C)(C)C)CC1)c1ccc(NS(C)(=O)=O)c(F)c1 (centres unmarked) [Example 341, 4-(3-{[2-(3-fluoro-4-methylsulfonamido-phenyl)-propionylamino]-methyl}-6-trifluoromethyl-pyridin-2-yloxy)-piperidine-1-carbonic acid tert-butyl ester]
ne @ 1 μM	1.1	–	–	–	CCC(CC)Oc1nc(C(F)(F)F)ccc1CNC(=O)C(C)c1ccc(NS(C)(=O)=O)c(F)c1 (centres unmarked) [Example 335, N-[2-(1-ethyl-propoxy)-6-trifluoromethyl-pyridin-3-ylmethyl]-2-(3-fluoro-4-methylsulfonamido-phenyl)-propionamide]
–	1.5	161	–	–	CC(C(=O)NCc1ccc(C(F)(F)F)nc1OCCOc1ccccc1)c1ccc(NS(C)(=O)=O)c(F)c1 (centres unmarked) [Example 362, 2-(3-fluoro-4-methylsulfonamido-phenyl)-N-[2-(2-phenoxy-ethoxy)-6-trifluoromethyl-pyridin-3-ylmethyl]-propionamide]
